Patent US8097623B2, “Indoles useful in the treatment of inflammation” (Biolipox AB, priority 2005, dated 2012)

The compounds below were run against T1, mPGES-1 (Homo sapiens, UniProt O14684) (assay: mPGES-1 biological test: conversion of PGH2 to PGE2, PGE2 quantified by HPLC). Settings: mPGES-1 expressed in E. coli, membrane fraction; 25 min preincubation with inhibitor, 60 s with PGH2, room temperature; read-out: IC50 (inhibition of mPGES-1).
T1 construct: made in house; host or cells: E. coli
T1 sequence (O14684 1-152): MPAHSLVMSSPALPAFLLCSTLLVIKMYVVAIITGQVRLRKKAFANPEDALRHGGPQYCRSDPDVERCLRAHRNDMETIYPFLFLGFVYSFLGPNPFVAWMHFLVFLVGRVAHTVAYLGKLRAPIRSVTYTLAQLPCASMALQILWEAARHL
Type: biochemical
Protocol: In the assay mPGES-1 catalyses the reaction where the substrate PGH2 is converted to PGE2. mPGES-1 is expressed in E. coli and the membrane fraction is dissolved in 20 mM NaPi-buffer pH 8.0 and stored at −80° C. In the assay mPGES-1 is dissolved in 0.1M KPi-buffer pH 7.35 with 2.5 mM glutathione. The stop solution consists of H2O/MeCN (7/3), containing FeCl2 (25 mM) and HCl (0.15 M). The assay is performed at room temperature in 96-well plates. Analysis of the amount of PGE2 is performed with reversed phase HPLC (Waters 2795 equipped with a 3.9×150 mm C18 column). The mobile phase consists of H2O/MeCN (7/3), containing TFA (0.056%), and absorbance is measured at 195 nm with a Waters 2487 UV-detector.
The following is added chronologically to each well: • 1. 100 μL mPGES-1 in KPi-buffer with glutathione. Total protein concentration: 0.02 mg/mL. • 2. 1 μL inhibitor in DMSO. Incubation of the plate at room temperature for 25 minutes. • 3. 4 μL of a 0.25 mM PGH2 solution. Incubation of the plate at room temperature for 60 seconds. • 4. […] stop solution. • 180 μL per sample is analyzed with HPLC.

| Structure (SMILES) | IC50 |
| --- | --- |
| CC(C)Oc1ccc(-n2c(C(=O)O)c(CCC(=O)O)c3cc(-c4ccc(C(F)(F)F)cn4)ccc32)cc1 [Example 88, 3-(2-Carboxyethyl)-1-(4-isopropoxyphenyl)-5-(5-trifluoromethylpyridin-2-yl)indole-2-carboxylic acid] | 5.4 µM |
| CC(C)Oc1ccc(-n2c(C(=O)O)c(CN3CCCC3C(=O)O)c3cc(-c4ccc(C(C)(C)C)cc4)ccc32)cc1 (centres unmarked) [Example 87, 1-[5-(4-tert-Butylphenyl)-2-carboxy-1-(4-isopropoxyphenyl)indol-3-ylmethyl]-2-carboxypyrrolidinium chloride] | 2.3 µM |
| CC(=O)NC(Cc1c(C(=O)O)n(-c2ccc(OC3CCCC3)cc2)c2ccc(-c3ccc(C(F)(F)F)cc3)cc12)C(=O)O (centres unmarked) [Example 85, 3-(2-Acetylamino-2-carboxyethyl)-1-(4-cyclopentyloxyphenyl)-5-(4-trifluoromethylphenyl)indole-2-carboxylic acid] | 6.9 µM |
| CC(C)Oc1ccc(-n2c(C(=O)O)c(C(=O)O)c3cc(Oc4ccc(C(F)(F)F)cn4)ccc32)cc1 [Example 19, 1-(4-Isopropoxyphenyl)-5-(5-trifluoromethylpyridin-2-yloxy)indole-2,3-dicarboxylic acid] | 4.3 µM |
| CCOC(=O)c1c(C(=O)O)c2cc(-c3ccc(C(F)(F)F)cc3)ccc2n1-c1ccc(OC2CCCC2)cc1 [Example 67, 1-(4-Cyclopentyloxyphenyl)-5-(4-trifluoromethylphenyl)indole-2,3-dicarboxylic acid 2-ethyl ester] | 1.9 µM |
